Laboratory results taken from US20040081663A1, “Pharmaceutical composition for treatment and prevention of cancer and the preparation thereof” (priority 2002, published 2004).

Test system: LLC1 tumor cells (Lewis lung cancer cell line)
Test: Lewis lung (LLC) peritoneal carcinomatosis model, tumor resistance test
Assay type: in vivo, C57BL/6J mice
Conditions: for number of mice with tumors: 5 mice per group, 26th day, control: all mice; for average size of tumors (width times length): injected daily for 13 days, sacrificed on 26th day, control 12.38
Description: Lewis lung (LLC) peritoneal carcinomatosis model was used for treatment and prevention of cancer in vivo animal tests, referring to Bertram J S, Janik P., Cancer Lett 1980 November;11(1):63-73; Hirazumi A, Furusawa E. Phytother Res. 1999 August;13(5):380-7; Itoh H, Noda H, Amano H, Ito H. Anticancer Res. 1995 September-October;15(5B):1937-47; Wallace P K, Morahan P S., J Leukoc Biol. 1994 July;56(1) :41-51.; Redmond HP, Schuchter L, Bartlett D, Kelly C J, Shou J, Leon P, Daly J M. , J Surg Res. 1992 April;52(4):406-11; Kagawa K, Yamashita T, Tsubura E, Yamamura Y., Cancer Res. 1984 February;44(2):665-70; and Yamamoto T, Yamashita T, Tsubura E., Invasion Metastasis. 1981; 1(1) :71-84.
Twenty male C57BL/6J mice of two month old were separated into four groups for 5 mice/each. Each mouse was inoculated with 1×10^5 LLC1 tumor cells (Lewis lung cancer cell line) by abdominal injection around the thigh on the first day, i.e. day 0. Each group of mice was treated differently for 13 days as described below and treatment was stopped for 12 days. The mice were sacrificed on the 26th day. The abdomen of each mouse was dissected to examine the tumor size. The size of tumor was defined as width times length.
5 mice were used as the control group. The mice in the control group were injected daily with 100 microliters of saline with propylene glycol (3.05 μl propylene glycol in 100 ml normal saline) for 13 days. The treatment was stopped for 12 days and the mice were sacrificed on the 26th day after inoculation with LLC1 tumor cells. All mice had tumors with an average size of 12.38.
Authentic lovastatin sample was prepared and dissolved in saline with […] as indicated above. The dose amount for administration was adjusted according to mice body weight. The dose amount indicated was the proportional equivalent of lovastatin for human subjects of 60 Kg body weight.
Five C57BL/6J mice were inoculated with 1×10^5 LLC1 cells on day 0 as described above. Lovastatin equivalent of 80 mg/person was injected daily on the other side of the abdomen every day for 13 days. The treatment was stopped for 12 days and the mice were sacrificed on the 26th day after inoculation of LLC1 tumor cells. All mice had tumors with an average size of 9.96.
The same procedures of L80 were followed except that the dose amount for administration was changed to 200 mg/day/person equivalent. Three mice had tumors with an average size of 6.8.
The liquid fermentation product obtained from sample 2 was centrifuged 10,000 rpm for 20 minutes. The supernatant was collected and further filtrated with a 0.2 micron filter in sterile condition. The concentration of lovastatin in the derived filtrate was detected as 0.45 mg/ml. The dose amount for administration was adjusted according to mice body weight. The equivalent amount of lovastatin for human subjects was used for mice tumor resistance tests as indicated.
The same procedures of example L80 were followed except that the sample was Monascus composition. The dose amount for administration was equivalent to 80 mg lovastatin/day/person. The filtrate was administrated in the ratio of 60 μl filtrate to 40 μl saline.
The same procedures of example M80 were followed except that the administration sample was Monascus composition. The dose amount for administration was equivalent to 200 mg lovastatin/day/person. The filtrate was administrated in the ratio of 60 μl filtrate to 40 μl saline.

[1] = dose equivalent to 80 mg lovastatin/day/person
[2] = dose equivalent to 200 mg lovastatin/day/person

## CC[C@H](C)C(=O)O[C@H]1C[C@@H](C)C=C2C=C[C@H](C)[C@H](CC[C@@H]3C[C@@H](O)CC(=O)O3)[C@H]21 [Lovastatin, lovastatin]
[1]
  number of mice with tumors: All
  average size of tumors (width times length): 9.96
[2]
  number of mice with tumors: Three
  average size of tumors (width times length): 6.8
Higher dose of lovastatin (L200) and Monascus compositions M80 and M200
  tumor size (FIG. 6), in words: smaller tumor sizes
